These results are taken from ChEMBL document CHEMBL1821719, “2,7-disubstituted-pyrrolo[2,1-f][1,2,4]triazines: new variant of an old template and application to the discovery of anaplastic lymphoma kinase (ALK) inhibitors with in vivo antitumor activity” (J Med Chem, 2011).

The structures appear in SMILES notation.

One data set has as its target Insulin receptor (Homo sapiens, UniProt P06213). Nature of the data set: Inhibition of IR.
Data set [1] concerns the target ALK tyrosine kinase receptor (Homo sapiens, UniProt Q9UM73). Nature of the data set: Inhibition of human recombinant ALK assessed as phosphorylated product using PLC-gamma/GST substrate by modified ELISA method. A general note: ELISA stands for enzyme-linked immunosorbent assay.
Data set [2] has as its target NPM/ALK (Nucleophosmin/ALK tyrosine kinase receptor) (Homo sapiens, UniProt Q9UM73). The data set can be described thus: Inhibition of NPM/ALK phosphorylation in human KARPAS299 cells by ELISA. In kind it is cell-based, KARPAS-299.
Data set [3] in a line: Oral bioavailability in Sprague-Dawley rat. In kind it is ADME, organism-based. The following applies: in vivo.
Data set [4] relates to Mus musculus. Nature of the data set: Toxicity in SCID mouse assessed as weight loss at 10 mg/kg, po bid. The class given is organism-based. Set-up: dose 10 mg/kg, route oral. The note with it: in vivo.
The subject of data set [5] is Mus musculus. Nature of the data set: Toxicity in SCID mouse assessed as weight loss at 55 mg/kg, po bid. In kind it is organism-based. Details: dose 55 mg/kg, route oral. The following applies: in vivo.
Data set [6] in a line: Antitumor activity against human SUP-M2 cells xenografted into SCID mouse at 55 mg/kg, po administered bid. In kind it is functional. The following applies: read-out: TGI. (In general: In xenograft studies the graft and the host belong to different species.)
The test system of data set [7] is Mus musculus. The data set can be described thus: Toxicity in SCID mouse assessed as weight loss at 30 mg/kg, po bid. In kind it is organism-based. Set-up: dose 30 mg/kg, route oral. The note with it: in vivo.
Data set [8] is described as follows: Antitumor activity against human SUP-M2 cells xenografted into SCID mouse at 30 mg/kg, po bid. In kind it is functional. The following applies: read-out: TGI.
A short description of data set [9]: Plasma concentration in human SUP-M2 cells xenografted SCID mouse at 30 mg/kg, po measured after 6 hrs by LC/MS analysis. Set-up: dose 30 mg/kg, route oral. In kind it is ADME, organism-based.
The nature of data set [10]: Drug level in human SUP-M2 cells xenografted SCID mouse tumor at 10 mg/kg, po bid for 12 days measured after 2 hrs of final dose by LC/MS analysis. The following applies: read-out: Drug uptake. Details: dose 10 mg/kg, route oral. The class given is ADME, organism-based, Neoplasm.
Data set [11] is described as follows: AUC in SCID mouse at 1 mg/kg, iv. The class given is ADME, organism-based. Set-up: dose 1 mg/kg, route intravenous. The following applies: plasma.
Data set [12] can be described thus: AUC in SCID mouse at 10 mg/kg, po. The class given is ADME, organism-based. Set-up: dose 10 mg/kg, route oral. The following applies: plasma.
Data set [13] can be described thus: Drug level in human SUP-M2 cells xenografted SCID mouse tumor at 30 mg/kg, po after 6 hrs by LC/MS analysis. In kind it is ADME, organism-based, Neoplasm. Details: dose 30 mg/kg, route oral. The following applies: read-out: Drug uptake.
The nature of data set [14]: AUC in Sprague-Dawley rat at 5 mg/kg, po. The class given is ADME, organism-based. Set-up: dose 5 mg/kg, route oral. The note with it: plasma.
A short description of data set [15]: Plasma concentration in human SUP-M2 cells xenografted SCID mouse at 55 mg/kg, po bid for 12 days measured after 2 hrs of final dose by LC/MS analysis. The class given is ADME, organism-based. Details: dose 55 mg/kg, route oral.
Data set [16] can be described thus: Antitumor activity against human SUP-M2 cells xenografted into SCID mouse at 10 mg/kg, po bid. In kind it is functional. The following applies: read-out: TGI.
Data set [17] is described as follows: Plasma concentration in human SUP-M2 cells xenografted SCID mouse at 30 mg/kg, po measured after 24 hrs by LC/MS analysis. Details: dose 30 mg/kg, route oral. In kind it is ADME, organism-based.
Data set [18] in a line: Drug level in human SUP-M2 cells xenografted SCID mouse tumor at 30 mg/kg, po bid for 12 days measured after 2 hrs of final dose by LC/MS analysis. In kind it is ADME, organism-based, Neoplasm. Details: dose 30 mg/kg, route oral. The note with it: read-out: Drug uptake.
The nature of data set [19]: Plasma concentration in human SUP-M2 cells xenografted SCID mouse at 30 mg/kg, po bid for 12 days measured after 2 hrs of final dose by LC/MS analysis. The class given is ADME, organism-based. Details: dose 30 mg/kg, route oral.
Data set [20] can be described thus: Plasma concentration in human SUP-M2 cells xenografted SCID mouse at 30 mg/kg, po measured after 2 hrs by LC/MS analysis. Details: dose 30 mg/kg, route oral. In kind it is ADME, organism-based.
Data set [21] in a line: Tmax in SCID mouse at 10 mg/kg, po. In kind it is ADME, organism-based. The following applies: in vivo. Set-up: dose 10 mg/kg, route oral.
A short description of data set [22]: Volume of distribution in SCID mouse at 1 mg/kg, iv. In kind it is ADME, organism-based. The following applies: in vivo. Details: dose 1 mg/kg, route intravenous.
The nature of data set [23]: Apparent permeability from apical to basolateral side of human Caco2 cells. The note with it: Caco-2. The class given is ADME, cell-based. (Caco-2 cells form a polarised layer with tight junctions and transporters.)
Data set [24] in a line: Oral bioavailability in Sprague-Dawley rat at 5 mg/kg. The class given is ADME, organism-based. The note with it: in vivo.
A short description of data set [25]: Oral bioavailability in SCID mouse at 10 mg/kg. The note with it: in vivo. In kind it is ADME, organism-based.
A short description of data set [26]: Plasma concentration in human SUP-M2 cells xenografted SCID mouse at 30 mg/kg, po measured after 12 hrs by LC/MS analysis. In kind it is ADME, organism-based. Details: dose 30 mg/kg, route oral.
Data set [27] can be described thus: Inhibition of NPM-ALK phosphorylation in SUP-M2 cells xenografted in SCID mouse at 30 mg/kg, po measured upto 12 hrs by immunoblotting. The class given is functional. The following applies: SUP-M2, 12 h.
The nature of data set [28]: Drug level in human SUP-M2 cells xenografted SCID mouse tumor at 30 mg/kg, po after 2 hrs by LC/MS analysis. The class given is ADME, organism-based, Neoplasm. The note with it: read-out: Drug uptake. Details: dose 30 mg/kg, route oral.
Data set [29] can be described thus: Tmax in Sprague-Dawley rat at 5 mg/kg, po. The class given is ADME, organism-based. Set-up: dose 5 mg/kg, route oral. The note with it: in vivo.
Data set [30] is described as follows: Drug level in human SUP-M2 cells xenografted SCID mouse tumor at 30 mg/kg, po after 24 hrs by LC/MS analysis. In kind it is ADME, organism-based, Neoplasm. Details: dose 30 mg/kg, route oral. The note with it: read-out: Drug uptake.
A short description of data set [31]: Volume of distribution in Sprague-Dawley rat at 1 mg/kg, iv. In kind it is ADME, organism-based. Set-up: dose 1 mg/kg, route intravenous. The note with it: in vivo.
Data set [32] is described as follows: Drug level in human SUP-M2 cells xenografted SCID mouse tumor at 30 mg/kg, po after 12 hrs by LC/MS analysis. The class given is ADME, organism-based, Neoplasm. Set-up: dose 30 mg/kg, route oral. The note with it: read-out: Drug uptake.
Data set [33] is described as follows: Antiproliferative activity against human SUP-M2 cells after 48 hrs by MTS assay. In kind it is functional, cell-based. The note with it: SUP-M2, 48 h.
Data set [34] is described as follows: Plasma concentration in human SUP-M2 cells xenografted SCID mouse at 10 mg/kg, po bid for 12 days measured after 2 hrs of final dose by LC/MS analysis. The class given is ADME, organism-based. Details: dose 10 mg/kg, route oral.
Data set [35] is described as follows: AUC in Sprague-Dawley rat at 1 mg/kg, iv. In kind it is ADME, organism-based. Set-up: dose 1 mg/kg, route intravenous. The note with it: plasma.
A further data set deals with KARPAS-299. Nature of the data set: Antiproliferative activity against human KARPAS299 cells by MTS assay. In kind it is functional, cell-based.

Chain of Insulin receptor (P06213 28-758 limits assumed): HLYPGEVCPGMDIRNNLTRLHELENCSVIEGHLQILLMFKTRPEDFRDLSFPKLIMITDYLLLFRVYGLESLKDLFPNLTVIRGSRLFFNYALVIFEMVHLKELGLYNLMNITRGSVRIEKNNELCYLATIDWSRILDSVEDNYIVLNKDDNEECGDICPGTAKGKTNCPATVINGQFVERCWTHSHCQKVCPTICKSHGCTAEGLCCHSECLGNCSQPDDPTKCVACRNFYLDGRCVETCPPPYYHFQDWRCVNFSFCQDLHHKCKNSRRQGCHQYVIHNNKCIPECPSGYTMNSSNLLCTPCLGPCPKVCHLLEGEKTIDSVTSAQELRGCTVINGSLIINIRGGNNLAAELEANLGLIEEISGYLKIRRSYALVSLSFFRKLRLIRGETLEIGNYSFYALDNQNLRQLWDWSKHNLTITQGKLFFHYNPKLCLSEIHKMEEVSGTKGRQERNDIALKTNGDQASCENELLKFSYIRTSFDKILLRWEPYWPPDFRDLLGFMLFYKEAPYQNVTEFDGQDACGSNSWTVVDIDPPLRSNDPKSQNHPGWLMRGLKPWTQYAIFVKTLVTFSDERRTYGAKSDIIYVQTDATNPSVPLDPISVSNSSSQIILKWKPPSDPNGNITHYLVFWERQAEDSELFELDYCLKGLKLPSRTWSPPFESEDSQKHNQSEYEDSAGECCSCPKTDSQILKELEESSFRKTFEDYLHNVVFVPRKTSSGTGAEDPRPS
Chain of Insulin receptor (P06213 763-1382 limits assumed): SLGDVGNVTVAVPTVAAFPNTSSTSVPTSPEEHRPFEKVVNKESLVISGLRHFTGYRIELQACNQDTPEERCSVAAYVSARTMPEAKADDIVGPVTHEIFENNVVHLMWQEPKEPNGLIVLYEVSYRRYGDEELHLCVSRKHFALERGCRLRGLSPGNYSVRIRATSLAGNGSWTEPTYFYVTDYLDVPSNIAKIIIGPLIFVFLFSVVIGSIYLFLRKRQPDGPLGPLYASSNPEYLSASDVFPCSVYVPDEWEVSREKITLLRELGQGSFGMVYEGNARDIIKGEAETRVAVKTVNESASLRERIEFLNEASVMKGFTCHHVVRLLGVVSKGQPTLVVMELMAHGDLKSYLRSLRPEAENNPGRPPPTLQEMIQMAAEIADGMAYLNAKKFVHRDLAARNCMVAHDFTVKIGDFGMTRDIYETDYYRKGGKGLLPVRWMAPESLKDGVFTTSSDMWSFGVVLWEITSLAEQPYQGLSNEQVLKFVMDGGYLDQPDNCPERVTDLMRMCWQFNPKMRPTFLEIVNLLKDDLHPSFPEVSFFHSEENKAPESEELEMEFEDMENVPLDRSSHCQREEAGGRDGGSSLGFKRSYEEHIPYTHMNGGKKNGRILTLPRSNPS
Chain of ALK tyrosine kinase receptor (Q9UM73 whole entry): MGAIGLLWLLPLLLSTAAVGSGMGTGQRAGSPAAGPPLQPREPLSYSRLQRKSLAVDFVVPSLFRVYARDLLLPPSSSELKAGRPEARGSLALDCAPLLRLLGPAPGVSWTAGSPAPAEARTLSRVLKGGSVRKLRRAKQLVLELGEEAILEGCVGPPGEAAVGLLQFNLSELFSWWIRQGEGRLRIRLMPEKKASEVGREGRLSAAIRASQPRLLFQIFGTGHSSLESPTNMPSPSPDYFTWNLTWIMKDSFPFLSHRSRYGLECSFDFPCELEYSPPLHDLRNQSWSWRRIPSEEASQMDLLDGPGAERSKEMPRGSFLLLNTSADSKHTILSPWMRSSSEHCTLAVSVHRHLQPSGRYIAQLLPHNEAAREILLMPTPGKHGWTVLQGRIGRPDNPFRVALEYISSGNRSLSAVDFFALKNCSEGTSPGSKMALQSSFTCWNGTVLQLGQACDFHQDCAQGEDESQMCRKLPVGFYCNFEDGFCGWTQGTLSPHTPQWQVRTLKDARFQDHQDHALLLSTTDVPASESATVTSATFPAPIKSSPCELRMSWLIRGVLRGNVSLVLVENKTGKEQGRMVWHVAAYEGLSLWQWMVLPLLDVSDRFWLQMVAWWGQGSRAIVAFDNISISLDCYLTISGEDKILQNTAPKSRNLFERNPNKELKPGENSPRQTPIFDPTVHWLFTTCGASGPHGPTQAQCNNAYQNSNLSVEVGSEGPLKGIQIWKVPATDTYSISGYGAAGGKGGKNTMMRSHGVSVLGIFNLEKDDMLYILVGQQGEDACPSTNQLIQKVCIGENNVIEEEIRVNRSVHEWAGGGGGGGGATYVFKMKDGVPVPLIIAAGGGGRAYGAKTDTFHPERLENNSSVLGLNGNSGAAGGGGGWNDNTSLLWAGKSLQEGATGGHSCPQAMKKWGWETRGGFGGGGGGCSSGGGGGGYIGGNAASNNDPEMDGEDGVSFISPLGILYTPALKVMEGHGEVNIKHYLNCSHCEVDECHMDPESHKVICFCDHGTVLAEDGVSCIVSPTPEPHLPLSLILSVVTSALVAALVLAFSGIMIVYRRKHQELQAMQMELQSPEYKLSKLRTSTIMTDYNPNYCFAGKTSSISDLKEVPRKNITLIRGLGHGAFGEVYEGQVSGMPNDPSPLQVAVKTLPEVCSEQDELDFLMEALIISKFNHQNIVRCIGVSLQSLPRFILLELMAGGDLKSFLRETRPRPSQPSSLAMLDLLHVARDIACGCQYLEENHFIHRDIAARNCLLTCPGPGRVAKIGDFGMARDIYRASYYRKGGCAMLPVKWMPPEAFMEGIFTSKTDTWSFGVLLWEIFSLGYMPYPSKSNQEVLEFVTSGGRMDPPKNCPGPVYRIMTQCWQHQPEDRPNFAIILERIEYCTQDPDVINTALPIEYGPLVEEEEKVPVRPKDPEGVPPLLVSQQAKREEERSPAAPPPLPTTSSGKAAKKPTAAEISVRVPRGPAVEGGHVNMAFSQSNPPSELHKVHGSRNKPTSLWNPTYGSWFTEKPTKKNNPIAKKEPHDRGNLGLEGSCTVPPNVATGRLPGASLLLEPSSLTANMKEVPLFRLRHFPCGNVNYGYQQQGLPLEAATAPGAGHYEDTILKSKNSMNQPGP
Chain of NPM/ALK (Nucleophosmin/ALK tyrosine kinase receptor) (Q9UM73 whole entry): as above
Chain of NPM/ALK (Nucleophosmin/ALK tyrosine kinase receptor) (P06748 whole entry, further chain): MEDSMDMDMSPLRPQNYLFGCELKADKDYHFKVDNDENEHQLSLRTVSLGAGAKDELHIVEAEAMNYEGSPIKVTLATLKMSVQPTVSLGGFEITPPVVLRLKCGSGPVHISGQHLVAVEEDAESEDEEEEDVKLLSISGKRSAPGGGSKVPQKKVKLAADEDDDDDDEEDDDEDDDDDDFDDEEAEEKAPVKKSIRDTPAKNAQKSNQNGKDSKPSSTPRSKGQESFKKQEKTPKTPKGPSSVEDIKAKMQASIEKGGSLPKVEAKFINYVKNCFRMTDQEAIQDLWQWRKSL

On to `CN1CCN(c2ccc(Nc3ncc4ccc(-c5ccccc5NS(C)(=O)=O)n4n3)cc2)CC1`, for which the results for the IC50 (at Insulin receptor; in data set [1]) were 1870 nM and 260 nM, respectively.

In the case of `COc1cc(N2CCN(C)CC2)ccc1Nc1ncc2ccc(-c3ccccc3OC)n2n1`, the IC50 was determined as 391 nM against Insulin receptor, 100 nM in data set [2] and 9 nM in data set [1].

In data set [3], `COc1cc(N2CCN(C[C@H](C)O)CC2)ccc1Nc1ncc2ccc(-c3ccccc3OC)n2n1` had a bioavailability of 8%. Also, the IC50 was determined as 206 nM on Insulin receptor, 100 nM in data set [2] and 5 nM in data set [1].

The molecule `COc1cc(N2CCN(C[C@@H](C)O)CC2)ccc1Nc1ncc2ccc(-c3ccccc3OC)n2n1` registered a bioavailability in data set [3] of 6%. Also, the results for the IC50 (against Insulin receptor; in [2]; in data set [1]) were 160 nM, 80 nM and 3.8 nM, respectively.

With `COc1cc(N2CCN(N3CCOCC3)CC2)ccc1Nc1ncc2ccc(-c3ccccc3OC)n2n1`, the bioavailability in data set [3] amounted to 34%. The Activity result in the data set on Mus musculus [4], in the data set on Mus musculus [5] and in the data set on Mus musculus [7] was “Non-toxic” throughout. The half-maximal inhibitory concentration (IC50) on Insulin receptor is 357 nM; in [2], 85 nM; in data set [1], 9 nM. Also, the inhibition in vivo at 55 mg/kg in data set [6] was determined as 98%. The inhibition in vivo at 30 mg/kg in data set [8] worked out at 60%.

Consider `COc1cc(N2CCN(C)CC2)ccc1Nc1ncc2ccc(-c3ccccc3N(C)S(C)(=O)=O)n2n1`, for which the values for the IC50 (at Insulin receptor; in [2]; in data set [1]) were 934 nM, 200 nM and 9 nM, respectively.

For the molecule `COc1cc(N2CCN(C[C@H](C)O)CC2)ccc1Nc1ncc2ccc(-c3ccccc3N(C)S(C)(=O)=O)n2n1`, the figures for the bioavailability in data set [3], in data set [24] and in [25] were 38%, 38% and 36%, respectively. The concentration at 6 h in data set [9] stood at 950 ng/mL; in data set [13], 792 ng/g. The concentration at 2 h in data set [10] was 1530 ng/g; in data set [15], 2890 ng/mL; in data set [18], 3120 ng/g; in data set [19] it was 1580 ng/mL; in data set [20], 2160 ng/mL; in data set [28], 1440 ng/g. In addition, the concentration at 2 h in [34] was found to be 516 ng/mL. Also, the AUC in [11] turned out to be 661 ng·h/mL; in [12] it was 2520 ng·h/mL; in [14] it was 610 ng·h/mL; in [35] it was 343 ng·h/mL. Moreover, the inhibition in vivo at 10 mg/kg in data set [16] turned out to be 35%. In addition, the concentration at 24 h was < 10 ng/mL in data set [17] and < 30 ng/g in data set [30]. Also, the inhibition in vivo at 55 mg/kg in data set [6] worked out at 98%. The results for the time of peak concentration (Tmax) in data set [21] and in data set [29] were 1 h and 2 h, respectively. The results for the Vd in [22] and in data set [31] were 2.1 L/kg and 3.3 L/kg, respectively. In addition, in data set [23], the Papp A→B was 20.3 ×10⁻⁶ cm/s. Besides, the values for the concentration at 12 h in data set [26] and in [32] were 155 ng/mL and 235 ng/g, respectively. Also, the inhibition in vivo at 30 mg/kg in data set [27] came to 75%; in data set [8] it was 81%. Further, the IC50 amounted to 87 nM in [33] and 477 nM with KARPAS-299.

On to `COc1cc(N2CCN(C[C@@H](C)O)CC2)ccc1Nc1ncc2ccc(-c3ccccc3N(C)S(C)(=O)=O)n2n1`, for which the bioavailability in data set [3] stood at 41%.

In data set [3], `COc1cc(N2CCC(N3CCOCC3)CC2)ccc1Nc1ncc2ccc(-c3ccccc3N(C)S(C)(=O)=O)n2n1` gave a bioavailability of 47%. In addition, the Activity entry in the data set with Mus musculus [4], in the data set with Mus musculus [5] and in the data set with Mus musculus [7] was “Non-toxic” each time. Also, the figures for the concentration for half-maximal inhibition (IC50) (against Insulin receptor; in [2]; in [1]) were 809 nM, 50 nM and 7 nM, respectively. Besides, in data set [6], the inhibition in vivo at 55 mg/kg is 96%. Moreover, the inhibition in vivo at 30 mg/kg in data set [8] was determined as 50%.

As usually defined, the IC50 is the concentration that gives 50% inhibition. In general, bioavailability refers to dose-corrected exposure relative to a reference, in per cent. Lower therefore signals little systemic uptake. The AUC is the area under the concentration-time curve, a measure of exposure. As usually defined, the Tmax is the time at which the peak concentration occurs. For orientation: Vd means the apparent volume that relates the amount in the body to the concentration in plasma or blood. Low readings indicate confinement near the circulation, high ones extensive tissue distribution. One may read the Papp A→B as the apparent permeability from the apical to the basolateral side of a cell layer.
